Data from the supplement of paper PMC10307832.

Legend:
Experiment in all cases: relative viability (nuclei count vs DMSO), 5 days (fraction); higher = more cells survive
R406 + Vorinostat = compound: COc1cc(Nc2ncc(F)c(Nc3ccc4c(n3)NC(=O)C(C)(C)O4)n2)cc(OC)c1OC [R406] + O=C(CCCCCCC(=O)Nc1ccccc1)NO [Vorinostat] (partner 1 µM)
Procedure, shortened: (§1)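 Lung cancer cell lines in 1536-well plates got either a single drug or a fixed anchor-drug dose together with five library-drug doses (not always all listed) in √10 steps, by pin tool, on the day after seeding. Nuclei were counted after 5 days, and relative viability is the treated-to-vehicle ratio of nuclei counts. Values are medians of duplicate plates.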

Daporinad + Phenformin = compound: O=C(/C=C/c1cccnc1)NCCCCC1CCN(C(=O)c2ccccc2)CC1 [Daporinad] + N=C(N)NC(=N)NCCc1ccccc1 [Phenformin] (partner 250 µM)
Procedure, shortened: as §1

R406 + Bortezomib = compound: COc1cc(Nc2ncc(F)c(Nc3ccc4c(n3)NC(=O)C(C)(C)O4)n2)cc(OC)c1OC [R406] + CC(C)C[C@H](NC(=O)[C@H](Cc1ccccc1)NC(=O)c1cnccn1)B(O)O [Bortezomib] (partner 0.002 µM)
Procedure, shortened: as §1

Daporinad + AZD7762 = compound: O=C(/C=C/c1cccnc1)NCCCCC1CCN(C(=O)c2ccccc2)CC1 [Daporinad] + NC(=O)Nc1cc(-c2cccc(F)c2)sc1C(=O)N[C@H]1CCCNC1 [AZD7762] (partner 0.2 µM)
Procedure, shortened: as §1

Cell Line | relative viability (R406 + Vorinostat; first compound 0.08 µM) | relative viability (R406 + Vorinostat; first compound 0.253 µM) | relative viability (R406 + Vorinostat; first compound 0.8 µM) | relative viability (R406 + Vorinostat; first compound 2.53 µM) | relative viability (R406 + Vorinostat; first compound 8 µM) | relative viability (Daporinad + Phenformin; first compound 0.0005 µM) | relative viability (Daporinad + Phenformin; first compound 0.001581 µM) | relative viability (Daporinad + Phenformin; first compound 0.005 µM) | relative viability (Daporinad + Phenformin; first compound 0.01581 µM) | relative viability (R406 + Bortezomib; first compound 0.08 µM) | relative viability (R406 + Bortezomib; first compound 0.253 µM) | relative viability (R406 + Bortezomib; first compound 0.8 µM) | relative viability (R406 + Bortezomib; first compound 2.53 µM) | relative viability (R406 + Bortezomib; first compound 8 µM) | relative viability (Daporinad + AZD7762; first compound 0.0005 µM) | relative viability (Daporinad + AZD7762; first compound 0.001581 µM) | relative viability (Daporinad + AZD7762; first compound 0.005 µM) | relative viability (Daporinad + AZD7762; first compound 0.01581 µM)
NCI-H727 | 1.01 | 1.26 | 1.22 | 1.24 | 1.18 | 0.529 | 0.657 | 0.67 | 0.522 | 0.803 | 0.965 | 1.1 | 0.278 | 0.747 | 0.757 | 0.466 | 0.513 | 0.439
NCI-H1734 | 0.747 | 0.918 | 0.909 | 0.366 | 0.309 | 0.437 | 0.496 | 0.479 | 0.299 | 0.828 | 1.16 | 1.05 | 0.344 | 0.269 | 0.546 | 0.521 | 0.51 | 0.328
LXF-289 | 0.632 | 0.772 | 0.787 | 0.654 | 0.616 | 0.467 | 0.555 | 0.559 | 0.579 | 0.913 | 0.953 | 1.01 | 1.04 | 0.483 | 1.01 | 1.14 | 1.19 | 1.19
H3255 | 0.767 | 0.816 | 0.996 | 0.72 | 0.638 | 0.355 | 0.341 | 0.379 | 0.424 | 0.852 | 0.912 | 0.686 | 0.865 | 0.457 | 0.869 | 1.04 | 1.03 | 0.972
201T | 0.893 | 1.02 | 1.02 | 0.795 | 0.749 | 0.423 | 0.456 | 0.499 | 0.463 | 1.11 | 1.09 | 1.11 | 1.04 | 0.993 | 0.572 | 0.673 | 0.671 | 0.535
NCI-H2126 | 0.833 | 0.797 | 0.819 | 0.581 | 0.707 | 0.541 | 0.533 | 0.586 | 0.62 | 1.05 | 1.13 | 1.24 | 1.03 | 1.04 | 1.1 | 0.976 | 0.992 | 1.04
HOP-62 | 0.66 | 0.803 | 0.836 | 0.464 | 0.463 | 0.493 | 0.746 | 0.765 | 0.526 | 0.835 | 0.656 | 0.559 | 1.02 | 0.82 | 0.406 | 0.423 | 0.665 | 0.262
CAL-12T | 0.785 | 0.723 | 0.758 | 0.762 | 0.509 | 0.523 | 0.613 | 0.296 | 0.188 | 0.927 | 1.18 | 1.11 | 0.423 | 0.218 | 0.553 | 0.528 | 0.609 | 0.333
NCI-H596 | 0.659 | 0.681 | 0.72 | 0.38 | 0.263 | 0.627 | 0.749 | 0.774 | 0.746 | 1.1 | 1.28 | 0.758 | 0.984 | 0.475 | 0.867 | 1.09 | 1.27 | 1.03
NCI-H1755 | 0.778 | 0.861 | 0.757 | 0.642 | 0.468 | 0.648 | 0.628 | 0.639 | 0.667 | 0.994 | 1 | 0.974 | 0.748 | 0.571 | 0.429 | 0.43 | 0.462 | 0.5
